Patent US20210122730A1, “GLUCOCORTICOID RECEPTOR MODULATORS” (ORIC Pharmaceuticals, Inc., priority 2017, published 2021)

What follows are molecules tested against T1, GR (Homo sapiens, UniProt P04150) (assay: In Vitro GR Luciferase Reporter Assay (antagonist mode, CHO-K1-GR-MMTV-Luc reporter cells)). Conditions: antagonist assay with 10 nM Dexamethasone, 18-24 hours.
T1 construct: expressed in transfected cells; host or cells: CHO-K1
T1 sequence (P04150 1-777): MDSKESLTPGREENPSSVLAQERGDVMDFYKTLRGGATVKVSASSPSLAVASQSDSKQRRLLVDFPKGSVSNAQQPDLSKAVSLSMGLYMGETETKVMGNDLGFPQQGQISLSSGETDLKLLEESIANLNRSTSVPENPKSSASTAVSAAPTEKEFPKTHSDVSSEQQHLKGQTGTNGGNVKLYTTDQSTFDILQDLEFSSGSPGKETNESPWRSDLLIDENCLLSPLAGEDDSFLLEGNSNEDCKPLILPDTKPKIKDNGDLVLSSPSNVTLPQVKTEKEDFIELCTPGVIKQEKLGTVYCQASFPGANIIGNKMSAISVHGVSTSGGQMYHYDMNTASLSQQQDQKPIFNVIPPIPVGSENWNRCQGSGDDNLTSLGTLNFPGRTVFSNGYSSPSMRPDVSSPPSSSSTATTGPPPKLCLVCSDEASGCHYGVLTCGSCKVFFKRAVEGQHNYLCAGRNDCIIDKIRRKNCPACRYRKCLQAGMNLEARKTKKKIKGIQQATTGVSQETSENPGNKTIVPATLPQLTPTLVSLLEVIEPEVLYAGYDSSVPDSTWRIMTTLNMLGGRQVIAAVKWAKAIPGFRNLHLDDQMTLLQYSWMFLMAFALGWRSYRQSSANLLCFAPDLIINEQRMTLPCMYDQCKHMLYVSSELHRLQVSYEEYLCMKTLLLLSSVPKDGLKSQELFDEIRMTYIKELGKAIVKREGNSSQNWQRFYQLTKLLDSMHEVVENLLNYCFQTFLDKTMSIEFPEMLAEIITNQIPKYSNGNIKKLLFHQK
Assay type: cell-based
Summary of the method: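 CHO-K1-GR-MMTV-Luc cells in phenol red-free DMEM with 10% CSS, stimulated with 10 nM dexamethasone (final) and treated with 8-point 1:5 compound dilutions for about 18-24 h at 37° C. Luciferase measured by OneGlo luminescence; IC50 derived for inhibition of GR activity.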

Row | IC50 [nM] | SMILES
1 | ≤ 100 | CN([C@H]1CCC2=Cc3c(cnn3-c3ccc(F)cc3)C[C@]2(C(=O)c2cc(C(F)(F)F)ccn2)C1)S(=O)(=O)c1ccc(F)cc1 [Example 5, 4-Fluoro-N-((4aS,6S)-1-(4-fluorophenyl)-4a-(4-(trifluoromethyl)picolinoyl)-4,4a,5,6,7,8-hexahydro-1H-benzo[f]indazol-6-yl)-N-methylbenzenesulfonamide]
2 | ≤ 100 | Cn1cc(S(=O)(=O)N(C2CC2)[C@H]2CCC3=Cc4c(cnn4-c4ccc(F)cc4)C[C@]3(C(=O)c3cc(C(F)(F)F)ccn3)C2)cn1 [Example 88, N-cyclopropyl-N-((4aS,6S)-1-(4-fluorophenyl)-4a-(4-(trifluoromethyl)picolinoyl)-4,4a,5,6,7,8-hexahydro-1H-benzo[f]indazol-6-yl)-1-methyl-1H-pyrazole-4-sulfonamide]
3 | ≤ 100 | CN([C@H]1CCC2=Cc3c(cnn3-c3ccc(F)cc3)C[C@]2(C(=O)c2cc(C(F)(F)F)ccn2)C1)S(=O)(=O)c1ccn(C)n1 [Example 98, N-((4aS,6S)-1-(4-fluorophenyl)-4a-(4-(trifluoromethyl)picolinoyl)-4,4a,5,6,7,8-hexahydro-1H-benzo[f]indazol-6-yl)-N,1-dimethyl-1H-pyrazole-3-sulfonamide]
4 | ≤ 100 | Cn1cc(S(=O)(=O)N(CC2CC2)[C@H]2CCC3=Cc4c(cnn4-c4ccc(F)cc4)C[C@]3(C(=O)c3cc(C(F)(F)F)ccn3)C2)cn1 [Example 103, N-(cyclopropylmethyl)-N-((4aS,6S)-1-(4-fluorophenyl)-4a-(4-(trifluoromethyl)picolinoyl)-4,4a,5,6,7,8-hexahydro-1H-benzo[f]indazol-6-yl)-1-methyl-1H-pyrazole-4-sulfonamide]

Same assay, conditions: antagonist mode, 10 nM Dexamethasone

Row | SMILES | IC50 [nM]
5 | Cn1cc(S(=O)(=O)C[C@H]2CCC3=Cc4c(cnn4-c4ccc(F)cc4)C[C@]3(C(=O)c3cc(C(F)(F)F)ccn3)C2)cn1 (single isomer, unassigned) [Example 118] | ≤ 100
6 | Cn1ccc(S(=O)(=O)N(CC(F)(F)F)[C@H]2CCC3=Cc4c(cnn4-c4ccc(F)cc4)C[C@]3(C(=O)c3cc(C(F)(F)F)ccn3)C2)n1 [Example 111, N-((4aS,6S)-1-(4-Fluorophenyl)-4a-(4-(trifluoromethyl)picolinoyl)-4,4a,5,6,7,8-hexahydro-1H-benzo[f]indazol-6-yl)-1-methyl-N-(2,2,2-trifluoroethyl)-1H-pyrazole-3-sulfonamide] | ≤ 100
7 | O=C(c1ncc(C(F)(F)F)s1)[C@]12Cc3cnn(-c4ccc(F)cc4)c3C=C1CC[C@H](N(C1CC1)S(=O)(=O)c1ccc(F)cc1)C2 [Example 177, N-cyclopropyl-4-fluoro-N-((4aS,6S)-1-(4-fluorophenyl)-4a-(5-(trifluoromethyl)thiazole-2-carbonyl)-4,4a,5,6,7,8-hexahydro-1H-benzo[f]indazol-6-yl)benzenesulfonamide] | ≤ 100
8 | Cn1ccc(S(=O)(=O)N(CC2CC2)[C@H]2CCC3=Cc4c(cnn4-c4ccc(F)cc4)C[C@]3(C(=O)c3ncc(C(F)(F)F)s3)C2)n1 [Example 179, N-(cyclopropylmethyl)-N-((4aS,6S)-1-(4-fluorophenyl)-4a-(5-(trifluoromethyl)thiazole-2-carbonyl)-4,4a,5,6,7,8-hexahydro-1H-benzo[f]indazol-6-yl)-1-methyl-1H-pyrazole-3-sulfonamide] | ≤ 100
9 | CC(C)N(C(=O)c1cnn(C)c1)[C@H]1CCC2=Cc3c(cnn3-c3ccc(F)cc3)C[C@]2(C(=O)c2ncc(C(F)(F)F)s2)C1 [Example 211, N-((4aS,6S)-1-(4-fluorophenyl)-4a-(5-(trifluoromethyl)thiazole-2-carbonyl)-4,4a,5,6,7,8-hexahydro-1H-benzo[f]indazol-6-yl)-N-isopropyl-1-methyl-1H-pyrazole-4-carboxamide] | ≤ 100
10 | O=C(c1cc(Cl)ccn1)[C@]12Cc3cnn(-c4ccc(F)cc4)c3C=C1CC[C@H](N(C1CC1)S(=O)(=O)c1ccc(F)cc1)C2 [Example 232, N-((4aS,6S)-4a-(4-chloropicolinoyl)-1-(4-fluorophenyl)-4,4a,5,6,7,8-hexahydro-1H-benzo[f]indazol-6-yl)-N-cyclopropyl-4-fluorobenzenesulfonamide] | ≤ 100
11 | Cn1cc(S(=O)(=O)N(CC(C)(C)O)[C@H]2CCC3=Cc4c(cnn4-c4ccc(F)cc4)C[C@]3(C(=O)c3cc(F)ccn3)C2)cn1 [Example 248, N-((4aS,6S)-1-(4-fluorophenyl)-4a-(4-fluoropicolinoyl)-4,4a,5,6,7,8-hexahydro-1H-benzo[f]indazol-6-yl)-N-(2-hydroxy-2-methylpropyl)-1-methyl-1H-pyrazole-4-sulfonamide] | ≤ 100
12 | Cn1ccc(S(=O)(=O)N(C2CC(F)(F)C2)[C@H]2CCC3=Cc4c(cnn4-c4ccc(F)cc4)C[C@]3(C(=O)c3ncc(C(F)(F)F)s3)C2)n1 [Example 270, N-(3,3-difluorocyclobutyl)-N-((4aS,6S)-1-(4-fluorophenyl)-4a-(5-(trifluoromethyl)thiazole-2-carbonyl)-4,4a,5,6,7,8-hexahydro-1H-benzo[f]indazol-6-yl)-1-methyl-1H-pyrazole-3-sulfonamide] | ≤ 100
13 | Cn1ccc(S(=O)(=O)N([C@H]2CCC3=Cc4c(cnn4-c4ccc(F)cc4)C[C@]3(C(=O)c3ncc(C(F)(F)F)s3)C2)[C@H]2C[C@@](C)(O)C2)n1 [Example 277, N-((4aS,6S)-1-(4-fluorophenyl)-4a-(5-(trifluoromethyl)thiazole-2-carbonyl)-4,4a,5,6,7,8-hexahydro-1H-benzo[f]indazol-6-yl)-N-((1s,3R)-3-hydroxy-3-methylcyclobutyl)-1-methyl-1H-pyrazole-3-sulfonamide] | ≤ 100

The remaining lines, values ahead:

Row | IC50 [nM] | SMILES
14 | ≤ 100 | Cn1ccc(S(=O)(=O)[C@H]2CCC3=Cc4c(cnn4-c4ccc(F)cc4)C[C@]3(C(=O)c3cc(C(F)(F)F)ccn3)C2)n1 [Example 113, ((4aS,6S)-1-(4-Fluorophenyl)-6-((1-methyl-1H-pyrazol-3-yl)sulfonyl)-1,4,5,6,7,8-hexahydro-4aH-benzo[f]indazol-4a-yl)(4-(trifluoromethyl)pyridin-2-yl)methanone]
15 | ≤ 100 | Cn1ccc(S(=O)(=O)N(C2CC2)[C@H]2CCC3=Cc4c(cnn4-c4ccc(F)cc4)C[C@]3(C(=O)c3cc(C(F)(F)F)ccn3)C2)n1 [Example 138, N-cyclopropyl-N-((4aS,6S)-1-(4-fluorophenyl)-4a-(4-(trifluoromethyl)picolinoyl)-4,4a,5,6,7,8-hexahydro-1H-benzo[f]indazol-6-yl)-1-methyl-1H-pyrazole-3-sulfonamide]
16 | ≤ 100 | CC(C)N([C@H]1CCC2=Cc3c(cnn3-c3ccc(F)cc3)C[C@]2(C(=O)c2cc(C(F)(F)F)ccn2)C1)S(=O)(=O)c1ccn(C)n1 [Example 186, N-((4aS,6S)-1-(4-fluorophenyl)-4a-(4-(trifluoromethyl)picolinoyl)-4,4a,5,6,7,8-hexahydro-1H-benzo[f]indazol-6-yl)-N-isopropyl-1-methyl-1H-pyrazole-3-sulfonamide]
17 | ≤ 100 | Cn1ccc(S(=O)(=O)N(C2CC(F)(F)C2)[C@H]2CCC3=Cc4c(cnn4-c4ccc(F)cc4)C[C@]3(C(=O)c3cc(C(F)(F)F)ccn3)C2)n1 [Example 227, N-(3,3-difluorocyclobutyl)-N-((4aS,6S)-1-(4-fluorophenyl)-4a-(4-(trifluoromethyl)picolinoyl)-4,4a,5,6,7,8-hexahydro-1H-benzo[f]indazol-6-yl)-1-methyl-1H-pyrazole-3-sulfonamide]
18 | ≤ 100 | Cn1cnc(S(=O)(=O)N(C2CC2)[C@H]2CCC3=Cc4c(cnn4-c4ccc(F)cc4)C[C@]3(C(=O)c3ncc(C(F)(F)F)s3)C2)n1 [Example 305, N-cyclopropyl-N-((4aS,6S)-1-(4-fluorophenyl)-4a-(5-(trifluoromethyl)thiazole-2-carbonyl)-4,4a,5,6,7,8-hexahydro-1H-benzo[f]indazol-6-yl)-1-methyl-1H-1,2,4-triazole-3-sulfonamide]
19 | ≤ 100 | Cn1cnc(S(=O)(=O)N(C2CC2)[C@H]2CCC3=Cc4c(cnn4-c4ccc(F)cc4)C[C@]3(C(=O)c3cc(C(F)(F)F)ccn3)C2)n1 [Example 306, N-cyclopropyl-N-((4aS,6S)-1-(4-fluorophenyl)-4a-(4-(trifluoromethyl)picolinoyl)-4,4a,5,6,7,8-hexahydro-1H-benzo[f]indazol-6-yl)-1-methyl-1H-1,2,4-triazole-3-sulfonamide]
